# Assay results published in ChEMBL document CHEMBL1201862, “PubChem BioAssay data set” (2004).
# The source made the active and inactive calls.
# Legend:
# [1] = Luminescence Cell-Based Dose Response HTS to Identify Inhibitors of 5'UTR Stem-Loop Driven Prion Protein mRNA Translation in H4 Neuroglioblastoma Cells. [Related pubchem assays: 1827 (Project Summary), 1813 (Primary HTS)]; format: functional
# [2] = system: HEK293; experiment: HEK293T cell viability loss, resazurin readout – resazurin fluorescence, cytotoxicity control for NF-kB activator project, SAR follow-up (AID 493251); format: functional, cell-based; conditions: Homo sapiens
# [3] = system: Vero; experiment: cells; format: functional; conditions: Chlorocebus sabaeus
# [4] = system: HEK293; experiment: SAR Analysis of small molecule inhibitors of T-cell specific antigen receptor-induced NF-kB activation in a HEK-293T cell line using a luminescence assay - Set 2. [Related pubchem assays (depositor defined):AID435003, AID435012, AID489026]; format: functional, cell-based; conditions: Homo sapiens
# [5] = luciferase reporter signal suppression in cells – H4 neuroglioma cells, luminescence, dose response (AID 1990); format: functional, cell-based
# [6] = alpha-synuclein stem-loop luciferase translation blockers – H4 neuroglioma cells, luminescence, confirmation (AID 1988); format: functional, cell-based
# [7] = system: INS1; experiment: INS-1E survival protection against cytokine death – cell-based, luminescence, retest, dose response (AID 449756); format: functional; conditions: Rattus norvegicus;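 also: cell death triggered by IL-1 beta plus TNF-alpha plus IFN-gamma mixture; protective hits raise ATP signal compared with cytokine alone wells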
# [8] = system: Jurkat; experiment: SAR Analysis of small molecule inhibitors of T-cell specific antigen receptor-induced NF-kB activation in a Jurkat cell line using a luminescence assay - Set 2. [Related pubchem assays (depositor defined):AID435003, AID435012, AID465]; format: functional, cell-based; conditions: Homo sapiens
# [9] = toxicity toward cultured mammalian cells – cell-based, plate reader, cherry-pick samples, cytotoxicity control, dose response (AID 504397); format: functional
# [10] = target: CAAX prenyl protease 2 (Saccharomyces cerevisiae S288c, UniProt Q03530); experiment: inhibition of Rce1p peptide cleavage – biochemical, plate reader, dry powder retest, dose response (AID 588851)
# [11] = target: Glycogen synthase kinase-3 alpha (Homo sapiens, UniProt P49840); experiment: Inhibition of Human GSK-3 alpha Activity Measured in Biochemical System Using Microfluidics - 2063-06_Inhibitor_Dose_DryPowder_Activity. [Related pubchem assays (depositor defined):AID2709]
# Chain of Glycogen synthase kinase-3 alpha (P49840 whole entry): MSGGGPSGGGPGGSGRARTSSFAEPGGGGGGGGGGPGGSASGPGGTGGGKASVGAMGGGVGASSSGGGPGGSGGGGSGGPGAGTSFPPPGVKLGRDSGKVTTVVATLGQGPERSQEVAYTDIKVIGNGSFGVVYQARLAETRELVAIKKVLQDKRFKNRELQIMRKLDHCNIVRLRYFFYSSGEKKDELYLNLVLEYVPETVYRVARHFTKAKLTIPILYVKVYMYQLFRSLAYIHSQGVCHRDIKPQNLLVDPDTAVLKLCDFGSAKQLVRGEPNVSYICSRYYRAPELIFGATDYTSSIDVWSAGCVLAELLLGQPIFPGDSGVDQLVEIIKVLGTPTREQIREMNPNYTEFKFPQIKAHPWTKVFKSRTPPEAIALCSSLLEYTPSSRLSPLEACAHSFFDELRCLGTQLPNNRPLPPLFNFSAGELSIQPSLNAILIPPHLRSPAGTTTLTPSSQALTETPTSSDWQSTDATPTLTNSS
# [12] = target: Glycogen synthase kinase-3 beta (Homo sapiens, UniProt P49841); experiment: Inhibition of Human GSK-3 beta Activity Measured in Biochemical System Using Microfluidics - 2063-05_Inhibitor_Dose_DryPowder_Activity. [Related pubchem assays (depositor defined):AID2709]
# [13] = system: Jurkat; experiment: blockers of NF-kB activation in T cells – Jurkat, luciferase reporter, luminescence, B- and T-cell, dose response (AID 489004); format: functional, cell-based; conditions: Homo sapiens;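 also: NF-kB luciferase reporter Jurkat cells stimulated with PMA plus ionomycin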
# [14] = HEK-293T viability loss, compound-treated – cell-based, uHTS hits, cytotoxicity control for B/T-cell NF-kB inhibitor project, dose response (AID 489019); format: functional;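 also: IC50 reflects cytotoxicity as loss of cell viability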
# [15] = target: Multidrug resistance protein CDR1 (Candida albicans, UniProt P43071); experiment: inhibition of Nile Red efflux via Candida CDR1 – S. cerevisiae AD1-8u, singleplex, Cherry Pick1 hits, dose response (AID 588606); format: functional
# Chain of Multidrug resistance protein CDR1 (P43071 whole entry, looked up): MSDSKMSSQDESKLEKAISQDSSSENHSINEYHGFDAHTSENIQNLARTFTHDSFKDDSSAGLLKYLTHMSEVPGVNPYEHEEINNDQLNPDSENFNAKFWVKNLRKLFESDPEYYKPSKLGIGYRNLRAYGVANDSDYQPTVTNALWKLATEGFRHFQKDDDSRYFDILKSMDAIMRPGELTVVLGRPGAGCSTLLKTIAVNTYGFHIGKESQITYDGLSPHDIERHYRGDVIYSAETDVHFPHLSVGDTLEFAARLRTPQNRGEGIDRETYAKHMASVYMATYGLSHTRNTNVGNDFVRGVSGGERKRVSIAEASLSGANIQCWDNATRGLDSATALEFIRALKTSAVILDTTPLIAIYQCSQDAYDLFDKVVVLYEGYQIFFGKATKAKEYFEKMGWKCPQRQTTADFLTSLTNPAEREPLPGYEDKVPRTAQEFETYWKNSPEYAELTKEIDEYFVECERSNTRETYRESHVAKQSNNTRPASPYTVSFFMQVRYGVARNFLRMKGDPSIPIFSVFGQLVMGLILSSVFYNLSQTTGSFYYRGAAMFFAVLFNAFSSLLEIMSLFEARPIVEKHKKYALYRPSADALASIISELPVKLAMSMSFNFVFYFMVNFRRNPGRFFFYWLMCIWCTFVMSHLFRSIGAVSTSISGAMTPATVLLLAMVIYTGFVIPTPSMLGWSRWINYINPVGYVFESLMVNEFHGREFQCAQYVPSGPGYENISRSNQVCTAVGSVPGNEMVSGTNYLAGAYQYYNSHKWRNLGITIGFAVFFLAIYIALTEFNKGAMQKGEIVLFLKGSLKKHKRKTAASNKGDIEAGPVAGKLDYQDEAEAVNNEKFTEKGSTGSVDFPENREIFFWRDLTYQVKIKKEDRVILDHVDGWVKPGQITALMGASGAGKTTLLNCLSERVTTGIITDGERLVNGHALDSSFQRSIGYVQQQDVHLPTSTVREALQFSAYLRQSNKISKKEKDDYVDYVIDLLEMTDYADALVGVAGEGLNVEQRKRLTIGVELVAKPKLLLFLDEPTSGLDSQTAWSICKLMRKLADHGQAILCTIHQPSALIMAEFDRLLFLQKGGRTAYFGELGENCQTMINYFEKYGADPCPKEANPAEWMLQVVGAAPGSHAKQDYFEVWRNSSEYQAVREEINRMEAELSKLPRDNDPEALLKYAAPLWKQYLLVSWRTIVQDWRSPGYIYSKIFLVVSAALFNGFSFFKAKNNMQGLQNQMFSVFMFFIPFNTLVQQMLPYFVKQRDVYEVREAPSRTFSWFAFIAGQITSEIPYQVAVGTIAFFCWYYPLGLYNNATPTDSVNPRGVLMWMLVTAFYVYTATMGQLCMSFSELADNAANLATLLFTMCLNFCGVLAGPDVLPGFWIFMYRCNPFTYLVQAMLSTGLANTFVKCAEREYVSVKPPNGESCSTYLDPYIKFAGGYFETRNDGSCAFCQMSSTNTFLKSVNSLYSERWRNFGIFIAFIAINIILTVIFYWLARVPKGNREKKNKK
# [16] = target: Benomyl/methotrexate resistance protein (Candida albicans, UniProt P28873); experiment: Candida albicans Mdr1 pump blockade titration – singleplex, Cherry Pick2 set, dose response (AID 623992); format: functional; conditions: read-out: EC50_MICROM
# Chain of Benomyl/methotrexate resistance protein (P28873 whole entry): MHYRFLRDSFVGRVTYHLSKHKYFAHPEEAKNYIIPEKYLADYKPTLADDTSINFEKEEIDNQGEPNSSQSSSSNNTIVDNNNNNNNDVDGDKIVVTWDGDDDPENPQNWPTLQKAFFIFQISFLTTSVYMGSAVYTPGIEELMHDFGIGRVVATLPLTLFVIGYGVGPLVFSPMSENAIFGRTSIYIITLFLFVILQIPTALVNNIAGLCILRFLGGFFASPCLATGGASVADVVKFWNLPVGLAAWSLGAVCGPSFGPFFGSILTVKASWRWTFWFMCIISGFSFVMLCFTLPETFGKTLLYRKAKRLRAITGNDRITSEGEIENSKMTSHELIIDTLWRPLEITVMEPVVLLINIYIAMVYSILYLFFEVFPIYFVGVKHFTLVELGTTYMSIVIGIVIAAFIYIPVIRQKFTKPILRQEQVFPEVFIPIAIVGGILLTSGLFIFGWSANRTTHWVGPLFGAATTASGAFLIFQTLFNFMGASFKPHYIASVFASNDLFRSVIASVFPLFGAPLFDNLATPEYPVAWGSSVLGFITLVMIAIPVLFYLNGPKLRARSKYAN
# [17] = target: RNA-editing ligase 1, mitochondrial (Trypanosoma brucei brucei, UniProt P86926); experiment: inhibition of trypanosome RNA editing ligase – biochemical, fluorescence, Trypanosoma brucei, dose response (AID 1117295); format: functional
# Chain of RNA-editing ligase 1, mitochondrial (P86926 whole entry): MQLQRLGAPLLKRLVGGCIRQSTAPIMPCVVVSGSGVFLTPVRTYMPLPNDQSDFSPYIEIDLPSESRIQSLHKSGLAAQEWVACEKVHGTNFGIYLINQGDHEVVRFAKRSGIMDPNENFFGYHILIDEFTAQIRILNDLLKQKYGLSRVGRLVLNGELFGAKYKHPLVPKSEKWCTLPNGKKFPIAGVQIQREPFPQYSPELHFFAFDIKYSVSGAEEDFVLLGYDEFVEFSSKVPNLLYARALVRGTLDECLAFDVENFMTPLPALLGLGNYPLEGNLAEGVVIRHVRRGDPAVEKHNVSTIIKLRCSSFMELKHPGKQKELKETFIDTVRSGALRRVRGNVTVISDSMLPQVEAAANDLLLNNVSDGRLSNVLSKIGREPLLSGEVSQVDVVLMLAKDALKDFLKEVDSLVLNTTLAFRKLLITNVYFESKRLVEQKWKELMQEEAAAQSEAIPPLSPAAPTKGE
# [18] = restored growth of temperature-sensitive Burl-1 yeast – whole organism, S. cerevisiae, Burl-1 ts mutant, luminescence, counter-screen for SUMOylation pathway inhibitor project, dose response (AID 463199); format: functional
# [19] = target: NAD-dependent protein deacylase sirtuin-5, mitochondrial (Homo sapiens, UniProt Q9NXA8); experiment: sirtuin-5 deacylation blockers, concentration series – biochemical, fluorescence imaging, cherry-pick, set 5, dose response (AID 720591);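 also: desuccinylation of succinyl peptide AMC substrate read as fluorescence after trypsin release; potency of inhibitors that lower fluorescence and may act on trypsin instead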
# Chain of NAD-dependent protein deacylase sirtuin-5, mitochondrial (Q9NXA8 whole entry): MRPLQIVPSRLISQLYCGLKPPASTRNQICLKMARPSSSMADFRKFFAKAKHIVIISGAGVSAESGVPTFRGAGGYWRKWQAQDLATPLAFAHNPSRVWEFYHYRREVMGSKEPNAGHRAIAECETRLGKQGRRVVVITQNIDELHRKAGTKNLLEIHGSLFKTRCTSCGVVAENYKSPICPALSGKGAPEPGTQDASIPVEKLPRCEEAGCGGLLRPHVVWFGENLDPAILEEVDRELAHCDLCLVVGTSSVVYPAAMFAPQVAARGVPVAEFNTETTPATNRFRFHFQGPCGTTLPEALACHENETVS
# [20] = target: T1, Fructose-bisphosphate aldolase (Mycobacterium tuberculosis, UniProt P9WQA3); experiment: Fluorescence-based biochemical high throughput dose response assay for inhibitors of the fructose-bisphosphate aldolase (FBA) of M. tuberculosis.; format: functional
# T1 sequence (P9WQA3 whole entry): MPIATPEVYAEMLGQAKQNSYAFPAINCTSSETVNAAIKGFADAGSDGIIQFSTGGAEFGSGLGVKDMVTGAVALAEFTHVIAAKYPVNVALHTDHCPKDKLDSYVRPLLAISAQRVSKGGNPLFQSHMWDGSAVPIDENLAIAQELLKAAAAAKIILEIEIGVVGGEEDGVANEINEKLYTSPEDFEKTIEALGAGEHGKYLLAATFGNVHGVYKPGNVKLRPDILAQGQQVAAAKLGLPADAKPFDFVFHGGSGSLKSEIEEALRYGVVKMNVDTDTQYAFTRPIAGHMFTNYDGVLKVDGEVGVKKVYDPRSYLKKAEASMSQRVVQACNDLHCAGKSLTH
# [21] = target: T2, Carboxy-terminal domain RNA polymerase II polypeptide A small phosphatase 1 (Homo sapiens, UniProt Q9GZU7); experiment: CTDSP1 inhibitors, concentration-response, biochemical, absorbance readout, ultra-high-throughput screen actives (AID 540297); format: functional
# T2 sequence (Q9GZU7 whole entry): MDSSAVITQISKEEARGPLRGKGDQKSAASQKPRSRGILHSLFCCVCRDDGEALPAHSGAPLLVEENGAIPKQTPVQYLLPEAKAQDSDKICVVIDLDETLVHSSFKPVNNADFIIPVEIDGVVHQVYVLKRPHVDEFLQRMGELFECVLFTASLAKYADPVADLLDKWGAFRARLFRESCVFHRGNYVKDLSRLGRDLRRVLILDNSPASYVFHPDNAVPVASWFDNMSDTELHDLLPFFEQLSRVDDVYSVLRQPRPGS
# [22] = target: Keap1/Nrf2 (Homo sapiens, UniProt Q14145); experiment: disruptors of Keap1 binding to Nrf2 peptide – biochemical, fluorescence polarization, cherry-picked samples, dose response (AID 588683)
# [23] = target: T3, Corticotropin-releasing factor receptor 2/Corticotropin-releasing factor-binding protein (Homo sapiens, UniProt P24387+Q13324); experiment: activators of CRF receptor 2 with binding protein – uHTS hits, confirmation (AID 602473); format: functional; conditions: read-out: EC50_Mean
# T3 sequence (Q13324 whole entry): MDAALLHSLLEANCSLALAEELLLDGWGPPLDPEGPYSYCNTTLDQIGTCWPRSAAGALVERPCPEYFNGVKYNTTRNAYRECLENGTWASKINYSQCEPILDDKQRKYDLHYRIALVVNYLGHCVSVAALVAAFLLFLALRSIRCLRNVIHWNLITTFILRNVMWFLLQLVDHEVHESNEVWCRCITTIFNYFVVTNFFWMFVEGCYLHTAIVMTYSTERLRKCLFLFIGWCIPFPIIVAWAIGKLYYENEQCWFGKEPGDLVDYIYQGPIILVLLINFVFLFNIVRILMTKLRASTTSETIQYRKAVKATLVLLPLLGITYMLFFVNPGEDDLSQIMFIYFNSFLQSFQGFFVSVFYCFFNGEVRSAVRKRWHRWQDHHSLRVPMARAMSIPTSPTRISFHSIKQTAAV
# T3 sequence (P24387 whole entry): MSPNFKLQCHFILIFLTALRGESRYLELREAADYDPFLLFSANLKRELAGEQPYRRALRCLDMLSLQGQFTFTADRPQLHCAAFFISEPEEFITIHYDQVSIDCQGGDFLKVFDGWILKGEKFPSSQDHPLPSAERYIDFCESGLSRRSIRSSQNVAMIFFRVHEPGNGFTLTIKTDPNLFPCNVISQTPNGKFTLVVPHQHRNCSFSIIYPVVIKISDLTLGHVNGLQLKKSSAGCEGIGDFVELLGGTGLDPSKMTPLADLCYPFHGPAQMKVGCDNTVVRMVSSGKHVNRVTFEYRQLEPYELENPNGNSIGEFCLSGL
# [24] = target: Dual specificity protein kinase CLK1 (Homo sapiens, UniProt P49759); experiment: inhibition of human CLK1 activity – biochemical, cherry-picked samples, selectivity assay for Dyrk1A inhibitor project, dose response (AID 588811)
# Chain of Dual specificity protein kinase CLK1 (P49759 whole entry): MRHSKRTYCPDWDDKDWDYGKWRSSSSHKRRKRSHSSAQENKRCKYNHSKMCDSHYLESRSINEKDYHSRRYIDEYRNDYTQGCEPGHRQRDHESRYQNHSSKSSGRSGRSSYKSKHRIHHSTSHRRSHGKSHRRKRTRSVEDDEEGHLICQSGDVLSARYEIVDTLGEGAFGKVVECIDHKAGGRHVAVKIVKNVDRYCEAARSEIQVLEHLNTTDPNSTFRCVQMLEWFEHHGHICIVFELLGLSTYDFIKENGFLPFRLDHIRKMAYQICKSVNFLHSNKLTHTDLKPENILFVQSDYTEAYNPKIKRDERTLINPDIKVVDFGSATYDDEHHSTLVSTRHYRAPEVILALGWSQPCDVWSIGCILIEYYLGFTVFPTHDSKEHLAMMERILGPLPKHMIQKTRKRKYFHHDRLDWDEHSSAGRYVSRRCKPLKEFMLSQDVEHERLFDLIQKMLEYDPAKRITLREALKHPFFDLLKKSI
# [25] = target: Dual specificity protein phosphatase 3 (Homo sapiens, UniProt P51452); experiment: SAR VHR1 Fluorescent Assay for In Vitro dose response studies Set 2. [Related pubchem assays (depositor defined):AID1654, AID1661, AID1878]; format: functional
# Chain of Dual specificity protein phosphatase 3 (P51452 whole entry): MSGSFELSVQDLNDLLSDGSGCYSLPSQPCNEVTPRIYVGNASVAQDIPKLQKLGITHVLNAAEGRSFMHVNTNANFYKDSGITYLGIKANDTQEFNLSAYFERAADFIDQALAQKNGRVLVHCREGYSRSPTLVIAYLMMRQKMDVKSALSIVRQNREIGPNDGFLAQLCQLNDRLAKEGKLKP
# [26] = target: Dual specificity protein phosphatase 6 (Rattus norvegicus, UniProt Q64346); format: functional;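 also: confirmatory in vitro dose-response testing of MKP-3 inhibition; recombinant His-tagged MKP-3 made in E. coli BL21 with OMFP substrate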
# [27] = target: Hexokinase-1 (Homo sapiens, UniProt P19367); experiment: hexokinase 1 activity inhibitors, potency – biochemical, set 2, resazurin fluorescence coupled readout, selectivity assay for HKDC1 inhibitor project, SAR follow-up (AID 588356); format: functional
# [28] = target: Hexokinase HKDC1 (Homo sapiens, UniProt Q2TB90); experiment: analog inhibition of human HKDC1 activity – biochemical, set 2, SAR follow-up (AID 588355); format: functional
# Chain of Hexokinase HKDC1 (Q2TB90 whole entry): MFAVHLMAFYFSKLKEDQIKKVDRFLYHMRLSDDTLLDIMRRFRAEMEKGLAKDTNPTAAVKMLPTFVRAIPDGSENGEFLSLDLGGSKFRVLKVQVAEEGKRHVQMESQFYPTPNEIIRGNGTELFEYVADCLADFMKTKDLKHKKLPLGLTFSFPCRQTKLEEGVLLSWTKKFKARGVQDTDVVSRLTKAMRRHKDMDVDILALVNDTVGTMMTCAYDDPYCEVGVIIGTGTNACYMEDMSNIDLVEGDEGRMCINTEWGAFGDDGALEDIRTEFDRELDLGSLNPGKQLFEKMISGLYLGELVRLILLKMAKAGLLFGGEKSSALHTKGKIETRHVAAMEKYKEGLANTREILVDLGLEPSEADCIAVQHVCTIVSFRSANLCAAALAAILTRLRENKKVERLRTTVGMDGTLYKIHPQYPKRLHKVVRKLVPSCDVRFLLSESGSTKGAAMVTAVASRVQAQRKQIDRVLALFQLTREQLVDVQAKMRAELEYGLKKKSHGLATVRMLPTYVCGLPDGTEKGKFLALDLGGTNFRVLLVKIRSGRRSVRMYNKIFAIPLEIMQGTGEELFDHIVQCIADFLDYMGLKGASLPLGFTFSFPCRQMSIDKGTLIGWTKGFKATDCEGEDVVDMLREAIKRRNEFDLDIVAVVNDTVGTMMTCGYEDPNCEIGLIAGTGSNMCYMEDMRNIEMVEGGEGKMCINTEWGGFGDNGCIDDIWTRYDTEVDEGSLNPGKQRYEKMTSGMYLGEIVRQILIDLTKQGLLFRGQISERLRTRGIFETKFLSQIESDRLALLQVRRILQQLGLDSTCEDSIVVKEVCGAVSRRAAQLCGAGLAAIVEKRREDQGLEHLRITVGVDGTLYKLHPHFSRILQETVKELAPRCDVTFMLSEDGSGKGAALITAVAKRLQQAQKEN
# [29] = fluconazole-exposed Candida albicans growth modulators – fluorescence, retest, confirmation (AID 2467); format: functional, cell-based
# [30] = target: ATP-dependent molecular chaperone HSP82 (Candida albicans (strain WO-1) (Yeast), UniProt C4YTQ8); experiment: steroid-induced GRE reporter decrease in yeast – S. cerevisiae, luminescence, Hsp90 inhibitor project, dose response (AID 2400); format: functional, cell-based;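 also: beta-galactosidase luminescence from glucocorticoid response element reporter as proxy for Hsp90 function; inhibitor potency where signal loss means Hsp90 inhibition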
# [31] = target: Serine/threonine-protein phosphatase (Candida dubliniensis (strain CD36 / CBS 7987 / NCPF 3949 / NRRLY-17841) (Yeast), UniProt B9W6M3); experiment: blockers of CaCl2-induced CDRE-lacZ signaling – S. cerevisiae, luminescence, secondary, dose response (AID 2388); format: functional, cell-based;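 also: yeast reporter cells carrying a calcineurin-responsive lacZ construct stimulated with calcium chloride; luminescent beta-galactosidase reporter signal in whole cells rather than isolated phosphatase activity; potency for inhibition where a drop in reporter signal means calcineurin blockade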
# [32] = NIH-3T3 fibroblast cytotoxicity, dose response, cytotoxicity control, cell-based, fluorescence, Alamar Blue, secondary assay (AID 2327); format: functional;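 also: NIH-3T3 mouse fibroblasts cultured with fluconazole at 8 µg/mL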
compound,measurement,setting,value
CCN1CCN(c2c(Cl)cccc2NC(=O)c2ccc([N+](=O)[O-])o2)CC1,EC50,[1],> 120 µM (not active)
same,IC50,[2],18.7 µM (active)
same,CC50,[3],23.4 µM (active)
same,IC50,[4],17.9 µM (active)
same,EC50,[5],10.6 µM (active)
same,EC50,[6],11.1 µM (active)
same,AC50,[7],3.68 µM (active)
same,IC50,[8],10.6 µM (active)
Cc1cc(N2CCN(C(c3ccccc3)c3ccccc3)CC2)n2ncnc2n1,AC50,[9],159 µM (active)
same,AC50,[10],7.39 µM (active)
Nc1nc(Nc2cccc(F)c2)nc(NCCO)c1[N+](=O)[O-],AC50,[11],0.953 µM (active)
same,AC50,[12],0.228 µM (active)
Cc1cc(Cl)c(S(=O)(=O)N2CCCCCC2)cc1OCC(=O)NC1CCCCC1,IC50,[13],> 80 µM (inactive)
same,IC50,[14],> 80 µM (inactive)
CCO[C@@H]1OC(C(=O)Nc2ccccc2)=C[C@H](c2ccc(Br)cc2)[C@H]1CCCO,EC50,[15],11.7 µM (active)
same,EC50,[16],25.2 µM (active)
CCCSc1nnc(NC(=O)CSc2sc3c(O)cc(O)nc3c2C#N)s1,IC50,[17],50.7 µM (inactive)
same,AC50,[18],106 µM (active)
same,AC50,[19],> 30 µM (inactive)
same,IC50,[20],> 9.99 µM (inactive)
same,IC50,[21],3.46 µM (active)
CCN(CC)S(=O)(=O)c1ccc(C(=O)OCCN2C(=O)c3cccc4c(N5CCOCC5)ccc(c34)C2=O)cc1,AC50,[22],13.9 µM (active)
same,EC50,[23],6.47 µM (active)
CCCNc1ncnc2ccc(-c3ccc4c(c3)OCO4)cc12,AC50,[24],0.00314 µM (active)
COc1ccc(C(=O)NC2CCSc3ccccc32)cc1S(N)(=O)=O (configuration not stated),IC50,[25],> 100 µM (inactive)
same,IC50,[26],> 100 µM (inactive)
O=C(O)C(c1ccccc1)N1C(=O)c2ccccc2C1=O (configuration not stated),IC50,[27],> 80 µM (inactive)
same,IC50,[28],> 80 µM (inactive)
O=[N+]([O-])c1cc(Cl)c2cccnc2c1O,EC50,[29],0.084 µM (active)
same,EC50,[30],3.67 µM (active)
same,EC50,[31],> 180 µM (inactive)
same,EC50,[32],11.1 µM (active)
